Reference: PubChem BioAssay AID1918941 (Molecular Pharmacology Branch, DTP, NCI, 2023)

System: SW 1271 complex spheroids, viability
Experiment: Anticancer human tumor SW 1271 cell line growth inhibition [LSD1];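 further: spheroids exposed to agents for 7 days before luminescence read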;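 on viability, T/C: 100% = DMSO vehicle control viability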
Settings: for IC50: curve of first compound; for viability, T/C: stronger effect = lower value
Excerpt: Multicellular complex tumor spheroid response to LSD1 Inhibitor Iadademstat in combination with a variety of drugs and investigational agents in selected tumor cell lines
The current study was undertaken to assess response to LSD1 inhibitors in combination with standard-of-care drugs and investigational agents in solid tumor complex spheroid models as well as in the K-562 leukemia. Complex spheroids include a stromal component modeled by human endothelial cells (HUVEC) and fibroblasts modeled by human mesenchymal stem cells (MSCs). The concentration ranges selected for each drug and investigational agent were based upon clinically achievable concentrations if the clinical Cmax of the agent was known.
Compounds. The drugs and investigational agents used in this study are listed on Table 1. All of the agents used, including staurosporine (NSC755774) and gemcitabine (NSC613327), were obtained from the Developmental Therapeutics Program, NCI. FDA-approved anticancer drugs are available from the NCI at http://dtp.nci.nih.gov/branches/dscb/oncology_drugset_explanation.html. Drugs and investigational agents were >95% pure by proton nuclear magnetic resonance (NMR) and liquid chromatography/mass spectrometry (LC/MS). Stock solutions were prepared at 400x in DMSO, stored at -70 degrees C, and diluted in fresh medium prior to their use. The final concentration of DMSO in cell culture wells never exceeded 0.25% (v/v). The FDA-approved anticancer drug set is available from the Developmental Therapeutics Program at https://dtp.cancer.gov/organization/dscb/obtaining/available_plates.htm. All drugs and investigational agents were tested over a range starting from a high concentration at or near the clinical Cmax and decreasing in half-log increments. If the clinical Cmax for an agent had not been determined, the highest concentration tested was 10 microM.
Cell Lines. The patient-derived cancer cell (PDC) lines: 292921-168-R-J2-PDC, K24384-001-R-PDC, and 521955-158-R2-J5-PDC pancreatic carcinomas, 556581-035-R-J1 ovarian carcinoma, 324938-238-R-J1-PDC, 855422-203-R-J1-PDC and 883617-216-R-J1-PDC urothelial bladder carcinomas, 743489-274-T-PDC renal cell carcinoma, 138582-R-J1 Merkel cell tumor, K60290-347-R-J1 and K57222-313-R-J1-PDC glioblastomas, 653999-131-R-J2-PDC, LG0703-F948-PDC, and 349418-098-R-PDC non-small cell lung carcinomas, 885512-296-R-J2-PDC, 171881-019-R-J1-PDC breast carcinomas and 186277-243-T-J2-PDC and 233499-124-R-J2-PDC colon carcinomas were obtained from the NCI Patient-Derived Models Repository (PDMR, https://pdmr.cancer.gov). The established cell lines NCI/ADR-RES (RRID:CVCL_14520 and OVCAR-5 (RRID:CVCL_1628) ovarian carcinomas, 786-O (RRID:CVCL_1051) and A498 (RRID:CVCL_A498) renal cell carcinoma, NCI-H211 (ATCC, cat. CRL-5824; RRID:CVCL_1529), NCI-H196 (ATCC, cat. CRL-5823, RRID:CVCL_1509), SW 1271 (ATCC, cat. CRL-2177, RRID:CVCL_1716) and NCI-H1876 (ATCC, cat. CRL-5902, RRID:CVCL_1503) small cell lung carcinomas, MDA-MB-231 (RRID:CVCL_0062) and MDA-MB-468 (RRID:CVCL_0419)breast carcinomas (10-12). Pooled donor human umbilical vein endothelial cells (HUVEC, Lonza, cat. CC-2519) and human mesenchymal stem cells (hMSC, Lonza, cat. PT-2501) were purchased from Lonza (Walkersville, MD).
Cell Culture. All cells were maintained in an incubator at 37 degrees C and 5% CO2 with 95% humidity. The PDC lines were cultured according to standard operating procedures established by the NCI PDMR (https://pdmr.cancer.gov). Briefly all PDCs were thawed and cultured in Matrigel-coated flasks prepared with a working solution of 1X Ham's F-12 nutrient mix, without supplementation (Invitrogen, Waltham, MA, cat. 11765054), 100 U/mL penicillin-streptomycin (Invitrogen, cat. 15140122), and 2.5% Matrigel (Corning Inc., Corning, NY, cat. 354248) for the first three passages. […]

SMILES: COc1cc(C2c3cc4c(cc3C(OC3OC5COC(C)OC5C(O)C3O)C3COC(=O)C23)OCO4)cc(OC)c1O (stereo not given) + NC1CC1c1ccc(-c2cccc(O)c2)cc1
- IC50 (second compound 0.1 µM): 1.39 µM
- IC50 (second compound 0.316 µM): > 3 µM
- IC50 (second compound 1 µM): 0.582 µM
- IC50 (second compound 3.16 µM): > 3 µM
- IC50 (second compound 10 µM): 0.289 µM
- viability, T/C (second compound 0.1 µM, first compound 0.00949 µM): 84.4%
- viability, T/C (second compound 0.1 µM, first compound 0.03 µM): 68.3%
- viability, T/C (second compound 0.1 µM, first compound 0.0949 µM): 63.8%
- viability, T/C (second compound 0.1 µM, first compound 0.3 µM): 53.7%
- viability, T/C (second compound 0.1 µM, first compound 0.949 µM): 56.7%
- viability, T/C (second compound 0.1 µM, first compound 3 µM): 44.4%
- viability, T/C (second compound 0.316 µM, first compound 0.00949 µM): 70.7%
- viability, T/C (second compound 0.316 µM, first compound 0.03 µM): 58.9%
- viability, T/C (second compound 0.316 µM, first compound 0.0949 µM): 67.7%
- viability, T/C (second compound 0.316 µM, first compound 0.3 µM): 52.8%
- viability, T/C (second compound 0.316 µM, first compound 0.949 µM): 49.9%
- viability, T/C (second compound 0.316 µM, first compound 3 µM): 54%
- viability, T/C (second compound 1 µM, first compound 0.00949 µM): 79.2%
- viability, T/C (second compound 1 µM, first compound 0.03 µM): 67.9%
- viability, T/C (second compound 1 µM, first compound 0.0949 µM): 62.9%
- viability, T/C (second compound 1 µM, first compound 0.3 µM): 57.1%
- viability, T/C (second compound 1 µM, first compound 0.949 µM): 45.8%
- viability, T/C (second compound 1 µM, first compound 3 µM): 38%
- viability, T/C (second compound 3.16 µM, first compound 0.00949 µM): 64.9%
- viability, T/C (second compound 3.16 µM, first compound 0.03 µM): 55.2%
- viability, T/C (second compound 3.16 µM, first compound 0.0949 µM): 61.3%
- viability, T/C (second compound 3.16 µM, first compound 0.3 µM): 48.2%
- viability, T/C (second compound 3.16 µM, first compound 0.949 µM): 48.5%
- viability, T/C (second compound 3.16 µM, first compound 3 µM): 59.9%
- viability, T/C (second compound 10 µM, first compound 0.00949 µM): 61%
- viability, T/C (second compound 10 µM, first compound 0.03 µM): 60.9%
- viability, T/C (second compound 10 µM, first compound 0.0949 µM): 53.1%
- viability, T/C (second compound 10 µM, first compound 0.3 µM): 51.5%
- viability, T/C (second compound 10 µM, first compound 0.949 µM): 41.6%
- viability, T/C (second compound 10 µM, first compound 3 µM): 46.5%

SMILES: Nc1ncn(C2CC(O)C(CO)O2)c(=O)n1 (stereo not given) + NC1CC1c1ccc(-c2cccc(O)c2)cc1
- IC50 (second compound 0.1 µM): > 1 µM
- IC50 (second compound 0.316 µM): > 1 µM
- IC50 (second compound 1 µM): > 1 µM
- IC50 (second compound 3.16 µM): > 1 µM
- IC50 (second compound 10 µM): > 1 µM
- viability, T/C (second compound 0.1 µM, first compound 0.00316 µM): 96.2%
- viability, T/C (second compound 0.1 µM, first compound 0.01 µM): 77.9%
- viability, T/C (second compound 0.1 µM, first compound 0.0316 µM): 84.7%
- viability, T/C (second compound 0.1 µM, first compound 0.1 µM): 62.4%
- viability, T/C (second compound 0.1 µM, first compound 0.316 µM): 66.7%
- viability, T/C (second compound 0.1 µM, first compound 1 µM): 81%
- viability, T/C (second compound 0.316 µM, first compound 0.00316 µM): 68%
- viability, T/C (second compound 0.316 µM, first compound 0.01 µM): 73.2%
- viability, T/C (second compound 0.316 µM, first compound 0.0316 µM): 75.2%
- viability, T/C (second compound 0.316 µM, first compound 0.1 µM): 71.6%
- viability, T/C (second compound 0.316 µM, first compound 0.316 µM): 70.5%
- viability, T/C (second compound 0.316 µM, first compound 1 µM): 77.7%
- viability, T/C (second compound 1 µM, first compound 0.00316 µM): 76.4%
- viability, T/C (second compound 1 µM, first compound 0.01 µM): 73.5%
- viability, T/C (second compound 1 µM, first compound 0.0316 µM): 81.8%
- viability, T/C (second compound 1 µM, first compound 0.1 µM): 56.2%
- viability, T/C (second compound 1 µM, first compound 0.316 µM): 69.5%
- viability, T/C (second compound 1 µM, first compound 1 µM): 64.1%
- viability, T/C (second compound 3.16 µM, first compound 0.00316 µM): 69.5%
- viability, T/C (second compound 3.16 µM, first compound 0.01 µM): 69.7%
- viability, T/C (second compound 3.16 µM, first compound 0.0316 µM): 69.8%
- viability, T/C (second compound 3.16 µM, first compound 0.1 µM): 63.9%
- viability, T/C (second compound 3.16 µM, first compound 0.316 µM): 52.7%
- viability, T/C (second compound 3.16 µM, first compound 1 µM): 72.7%
- viability, T/C (second compound 10 µM, first compound 0.00316 µM): 69.5%
- viability, T/C (second compound 10 µM, first compound 0.01 µM): 70.6%
- viability, T/C (second compound 10 µM, first compound 0.0316 µM): 61%
- viability, T/C (second compound 10 µM, first compound 0.1 µM): 57.9%
- viability, T/C (second compound 10 µM, first compound 0.316 µM): 57.7%
- viability, T/C (second compound 10 µM, first compound 1 µM): 59%
